# Data taken from paper PMC3833278, “De Novo Design of Protein Kinase Inhibitors by in Silico Identification of Hinge Region-Binding Fragments” (ACS Chemical Biology, 2013).
# Experiments:
# Type in all cases: biochemical
# SRPK1 = target: T1, SRPK1 (Homo sapiens, UniProt Q96SB4); assay: Radioactive (33P-ATP) filter-binding kinase assay, IC50
# T1 construct: MRC Protein Phosphorylation Unit, University of Dundee (screening panel)
# MAPKAP-K3 = target: T2, MAPKAP-K3 (Homo sapiens, UniProt Q16644); assay: as above
# T2 construct: MRC Protein Phosphorylation Unit, University of Dundee (screening panel)
# Method: (§1) Selected compounds were screened against a panel of mammalian kinases routinely run in the MRC Protein Phosphorylation Unit at the University of Dundee (www.kinase-screen.mrc.ac.uk).[21] Compounds were supplied in DMSO and screened in duplicates at 100 μM concentration using a radioactive (^33P-ATP) filter-binding-assay. For hit validation and all subsequent IC50 determinations, selected compounds were solubilized in DMSO at a top concentration of 51 mM and serially diluted to achieve 10-point titration of final assay concentrations from 1 mM to 30 nM. All IC50 determination assays were done in duplicate and the IC50 values were calculated using Prism (GraphPad Software, Inc.). All biochemical assays were run below the Km^app for the ATP for each enzyme allowing comparison of inhibition across the panel.
# Src = target: T3, Src (Homo sapiens, UniProt P12931); assay: as above
# T3 construct: MRC Protein Phosphorylation Unit, University of Dundee (screening panel)
# Method: as §1
# CK2 = target: T4, CK2 (Homo sapiens, UniProt P68400); assay: as above
# T4 construct: MRC Protein Phosphorylation Unit, University of Dundee (screening panel)
# Method: as §1
# RSK2 = target: T5, RSK2 (Homo sapiens, UniProt P51812); assay: as above
# T5 construct: MRC Protein Phosphorylation Unit, University of Dundee (screening panel)
# Method: as §1
# [1] = test system: panel of 117 protein kinases; assay: Kinase panel screen at 100 μM, radioactive filter-binding assay; settings: for number of kinases inhibited with >40% inhibition: panel of 117 kinases; for number of kinases of the docking panel for which activity was found: only kinases in the docking panel
# Method: (§2) A subset of library compounds was tested against a panel of 117 protein kinases as proof of concept study (Figure 4). The compounds were chosen to cover all six core fragments and to be fragment-sized (MW < 300 Da), therefore having a higher probability of inhibiting a kinase compared to more elaborated library compounds with the potential draw-back of having only moderate binding affinity.[25] […] According to these definitions, all assayed compounds were at least moderately active against at least one kinase (Figure 5a).
# as §1
# CLK2 = CLK2 (Homo sapiens, UniProt P49760); assay: Radioactive (33P-ATP) filter-binding kinase assay, IC50
# Aurora A = target: T6, Aurora A (Homo sapiens, UniProt O14965); assay: as above
# T6 construct: MRC Protein Phosphorylation Unit, University of Dundee (screening panel)
# Method: as §1
# IGF-1R = target: T7, IGF-1R (Homo sapiens, UniProt P08069); assay: as above
# T7 construct: MRC Protein Phosphorylation Unit, University of Dundee (screening panel)
# Method: as §1
# TAK1 = target: T8, TAK1 (Homo sapiens, UniProt O43318); assay: as above
# T8 construct: MRC Protein Phosphorylation Unit, University of Dundee (screening panel)
# Method: as §1
# GCK = target: T9, GCK (Homo sapiens, UniProt Q12851); assay: as above
# T9 construct: MRC Protein Phosphorylation Unit, University of Dundee (screening panel)
# Method: as §1
# FGF-R1 = target: T10, FGF-R1 (Homo sapiens, UniProt P11362); assay: as above
# T10 construct: MRC Protein Phosphorylation Unit, University of Dundee (screening panel)
# Method: as §1
# CDK2 = CDK2 (Homo sapiens, UniProt P24941); assay: as above
# HER4 = target: T11, HER4 (Homo sapiens, UniProt Q15303); assay: as above
# T11 construct: MRC Protein Phosphorylation Unit, University of Dundee (screening panel)
# Method: as §1
# YES1 = target: T12, YES1 (Homo sapiens, UniProt P07947); assay: as above
# T12 construct: MRC Protein Phosphorylation Unit, University of Dundee (screening panel)
# Method: as §1
# CHK2 = target: T13, CHK2 (Homo sapiens, UniProt O96017); assay: as above
# T13 construct: MRC Protein Phosphorylation Unit, University of Dundee (screening panel)
# Method: as §1
# VEG-FR = VEG-FR (Homo sapiens, UniProt P35968); assay: as above
# GSK-3β = GSK-3β (Homo sapiens, UniProt P49841); assay: as above
# SGK1 = target: T14, SGK1 (Homo sapiens, UniProt O00141); assay: as above
# T14 construct: MRC Protein Phosphorylation Unit, University of Dundee (screening panel)
# Method: as §1
# EPH-B3 = target: T15, EPH-B3 (Homo sapiens, UniProt P54753); assay: as above
# T15 construct: MRC Protein Phosphorylation Unit, University of Dundee (screening panel)
# Method: as §1
# MSK1 = target: T16, MSK1 (Homo sapiens, UniProt O75582); assay: Kinase panel screen at 100 μM, radioactive filter-binding assay
# T16 construct: MRC Protein Phosphorylation Unit, University of Dundee (screening panel)
# Method: as §2, §1
# MKK1 = target: T17, MKK1 (Homo sapiens, UniProt Q02750); assay: as above
# T17 construct: MRC Protein Phosphorylation Unit, University of Dundee (screening panel)
# Method: as §2, §1
# PIM3 = target: T18, PIM3 (Homo sapiens, UniProt Q86V86); assay: Radioactive (33P-ATP) filter-binding kinase assay, IC50
# T18 construct: MRC Protein Phosphorylation Unit, University of Dundee (screening panel)
# Method: as §1
# PIM1 = target: T19, PIM1 (Homo sapiens, UniProt P11309); assay: as above
# T19 construct: MRC Protein Phosphorylation Unit, University of Dundee (screening panel)
# Method: as §1
# T7 sequence (P08069 31-1367, species assumed): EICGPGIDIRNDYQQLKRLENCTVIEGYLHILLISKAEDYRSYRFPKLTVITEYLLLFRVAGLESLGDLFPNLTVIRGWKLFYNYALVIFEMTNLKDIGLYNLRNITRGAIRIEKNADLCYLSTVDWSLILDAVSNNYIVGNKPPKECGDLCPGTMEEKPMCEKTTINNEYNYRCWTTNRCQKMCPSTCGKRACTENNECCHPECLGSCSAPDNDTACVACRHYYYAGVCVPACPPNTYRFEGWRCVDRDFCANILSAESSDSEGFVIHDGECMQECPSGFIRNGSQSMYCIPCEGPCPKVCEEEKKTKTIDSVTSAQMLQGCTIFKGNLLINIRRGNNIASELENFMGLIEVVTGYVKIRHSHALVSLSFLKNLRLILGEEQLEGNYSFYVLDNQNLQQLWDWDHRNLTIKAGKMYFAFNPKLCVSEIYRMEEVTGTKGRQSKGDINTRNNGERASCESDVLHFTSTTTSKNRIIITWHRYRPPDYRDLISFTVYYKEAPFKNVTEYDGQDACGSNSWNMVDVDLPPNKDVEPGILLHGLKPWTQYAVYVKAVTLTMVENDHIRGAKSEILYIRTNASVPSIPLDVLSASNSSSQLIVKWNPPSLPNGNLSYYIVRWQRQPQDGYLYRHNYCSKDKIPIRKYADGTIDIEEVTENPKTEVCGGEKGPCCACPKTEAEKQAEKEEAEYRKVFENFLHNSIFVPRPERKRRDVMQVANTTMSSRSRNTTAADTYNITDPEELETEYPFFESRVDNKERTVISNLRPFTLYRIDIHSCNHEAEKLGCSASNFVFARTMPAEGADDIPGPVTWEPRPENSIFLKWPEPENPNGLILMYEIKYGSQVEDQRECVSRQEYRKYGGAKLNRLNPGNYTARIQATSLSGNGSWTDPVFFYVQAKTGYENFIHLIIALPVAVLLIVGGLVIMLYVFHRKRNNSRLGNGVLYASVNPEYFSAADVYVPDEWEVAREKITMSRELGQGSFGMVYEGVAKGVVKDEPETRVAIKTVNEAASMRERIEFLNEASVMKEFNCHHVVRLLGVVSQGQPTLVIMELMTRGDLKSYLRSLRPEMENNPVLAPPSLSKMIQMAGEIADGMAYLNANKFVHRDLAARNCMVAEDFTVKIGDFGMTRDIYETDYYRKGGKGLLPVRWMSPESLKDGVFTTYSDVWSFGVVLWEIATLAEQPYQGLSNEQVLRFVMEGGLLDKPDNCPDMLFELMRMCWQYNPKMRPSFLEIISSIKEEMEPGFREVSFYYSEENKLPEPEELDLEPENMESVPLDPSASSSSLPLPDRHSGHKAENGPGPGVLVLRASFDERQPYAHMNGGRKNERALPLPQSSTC
# T9 sequence (Q12851 whole entry): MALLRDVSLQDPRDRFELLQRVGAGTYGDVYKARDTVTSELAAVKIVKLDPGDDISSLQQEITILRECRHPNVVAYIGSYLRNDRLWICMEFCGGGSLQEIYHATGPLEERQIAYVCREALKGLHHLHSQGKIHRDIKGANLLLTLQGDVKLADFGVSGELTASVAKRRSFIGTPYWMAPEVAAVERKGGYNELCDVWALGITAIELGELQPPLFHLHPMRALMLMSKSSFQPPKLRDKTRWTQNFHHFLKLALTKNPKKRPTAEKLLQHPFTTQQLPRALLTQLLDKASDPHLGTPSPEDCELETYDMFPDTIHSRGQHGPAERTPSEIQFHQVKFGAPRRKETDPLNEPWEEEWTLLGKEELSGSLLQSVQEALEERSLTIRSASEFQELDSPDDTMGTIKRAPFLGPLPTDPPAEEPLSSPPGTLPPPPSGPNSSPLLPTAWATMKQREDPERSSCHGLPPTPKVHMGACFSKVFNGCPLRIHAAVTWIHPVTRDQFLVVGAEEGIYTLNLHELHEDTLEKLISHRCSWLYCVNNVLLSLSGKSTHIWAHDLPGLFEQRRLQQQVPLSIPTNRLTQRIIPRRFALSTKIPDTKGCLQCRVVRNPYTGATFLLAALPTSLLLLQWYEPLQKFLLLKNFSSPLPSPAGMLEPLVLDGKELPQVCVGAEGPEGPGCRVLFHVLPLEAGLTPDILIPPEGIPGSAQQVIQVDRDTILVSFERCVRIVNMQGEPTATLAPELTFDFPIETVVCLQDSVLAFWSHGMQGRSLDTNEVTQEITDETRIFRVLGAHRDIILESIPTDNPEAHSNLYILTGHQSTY
# T8 sequence (O43318 1-303 limits assumed): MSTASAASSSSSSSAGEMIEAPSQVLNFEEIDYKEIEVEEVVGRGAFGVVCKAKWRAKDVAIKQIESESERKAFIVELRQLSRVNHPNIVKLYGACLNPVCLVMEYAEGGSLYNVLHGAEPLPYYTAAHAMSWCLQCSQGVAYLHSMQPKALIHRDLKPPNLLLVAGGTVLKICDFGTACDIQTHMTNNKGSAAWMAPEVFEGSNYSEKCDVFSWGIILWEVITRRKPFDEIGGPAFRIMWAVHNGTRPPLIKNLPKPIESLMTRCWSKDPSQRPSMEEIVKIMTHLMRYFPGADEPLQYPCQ
# T10 sequence (P11362 22-822, species assumed): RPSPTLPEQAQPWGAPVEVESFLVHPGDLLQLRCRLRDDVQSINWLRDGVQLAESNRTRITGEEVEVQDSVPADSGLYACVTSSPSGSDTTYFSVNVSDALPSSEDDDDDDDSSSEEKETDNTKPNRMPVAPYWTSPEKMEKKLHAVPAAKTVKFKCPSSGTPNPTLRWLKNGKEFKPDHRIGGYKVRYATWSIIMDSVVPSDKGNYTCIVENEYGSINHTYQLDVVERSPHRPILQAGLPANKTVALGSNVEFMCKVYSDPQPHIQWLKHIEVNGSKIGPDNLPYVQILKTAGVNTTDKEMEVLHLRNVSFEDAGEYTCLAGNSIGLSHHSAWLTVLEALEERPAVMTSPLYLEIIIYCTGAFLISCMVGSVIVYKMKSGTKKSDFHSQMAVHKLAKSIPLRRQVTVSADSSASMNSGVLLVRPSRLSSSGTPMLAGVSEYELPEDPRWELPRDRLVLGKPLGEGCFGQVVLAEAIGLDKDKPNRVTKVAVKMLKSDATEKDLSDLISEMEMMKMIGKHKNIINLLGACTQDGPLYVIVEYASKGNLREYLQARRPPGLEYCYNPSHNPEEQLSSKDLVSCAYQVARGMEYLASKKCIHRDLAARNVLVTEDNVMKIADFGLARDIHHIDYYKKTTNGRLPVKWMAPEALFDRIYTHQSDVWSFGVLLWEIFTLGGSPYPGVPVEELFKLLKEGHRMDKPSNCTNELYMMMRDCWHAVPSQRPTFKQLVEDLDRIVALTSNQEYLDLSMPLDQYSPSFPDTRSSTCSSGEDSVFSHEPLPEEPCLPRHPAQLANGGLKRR
# T4 sequence (P68400 whole entry): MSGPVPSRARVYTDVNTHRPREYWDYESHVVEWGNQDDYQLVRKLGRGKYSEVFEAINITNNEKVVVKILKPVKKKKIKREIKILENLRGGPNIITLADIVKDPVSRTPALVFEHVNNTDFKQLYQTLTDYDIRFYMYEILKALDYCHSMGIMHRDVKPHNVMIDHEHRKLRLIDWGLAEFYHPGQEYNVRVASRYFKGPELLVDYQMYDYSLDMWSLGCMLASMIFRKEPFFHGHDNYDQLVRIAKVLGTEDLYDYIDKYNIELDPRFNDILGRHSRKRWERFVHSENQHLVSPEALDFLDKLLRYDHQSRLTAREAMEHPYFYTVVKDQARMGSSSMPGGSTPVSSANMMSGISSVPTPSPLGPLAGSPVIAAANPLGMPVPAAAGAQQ
# T3 sequence (P12931 whole entry, species assumed): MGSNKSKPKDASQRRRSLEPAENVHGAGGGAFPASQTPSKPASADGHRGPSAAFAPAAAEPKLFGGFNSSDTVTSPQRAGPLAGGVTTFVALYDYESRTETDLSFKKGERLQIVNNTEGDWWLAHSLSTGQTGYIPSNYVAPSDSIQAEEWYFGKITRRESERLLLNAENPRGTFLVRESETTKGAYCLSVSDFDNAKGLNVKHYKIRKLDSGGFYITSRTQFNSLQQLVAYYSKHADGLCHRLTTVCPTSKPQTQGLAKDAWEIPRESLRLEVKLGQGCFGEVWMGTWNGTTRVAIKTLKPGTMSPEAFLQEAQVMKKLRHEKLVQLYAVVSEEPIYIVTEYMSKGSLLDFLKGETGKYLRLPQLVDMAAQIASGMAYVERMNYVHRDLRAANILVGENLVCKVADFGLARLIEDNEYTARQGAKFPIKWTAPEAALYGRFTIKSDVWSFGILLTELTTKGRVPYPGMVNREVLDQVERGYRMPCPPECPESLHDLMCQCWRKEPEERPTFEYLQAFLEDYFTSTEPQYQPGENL
# T16 sequence (O75582 whole entry, species assumed): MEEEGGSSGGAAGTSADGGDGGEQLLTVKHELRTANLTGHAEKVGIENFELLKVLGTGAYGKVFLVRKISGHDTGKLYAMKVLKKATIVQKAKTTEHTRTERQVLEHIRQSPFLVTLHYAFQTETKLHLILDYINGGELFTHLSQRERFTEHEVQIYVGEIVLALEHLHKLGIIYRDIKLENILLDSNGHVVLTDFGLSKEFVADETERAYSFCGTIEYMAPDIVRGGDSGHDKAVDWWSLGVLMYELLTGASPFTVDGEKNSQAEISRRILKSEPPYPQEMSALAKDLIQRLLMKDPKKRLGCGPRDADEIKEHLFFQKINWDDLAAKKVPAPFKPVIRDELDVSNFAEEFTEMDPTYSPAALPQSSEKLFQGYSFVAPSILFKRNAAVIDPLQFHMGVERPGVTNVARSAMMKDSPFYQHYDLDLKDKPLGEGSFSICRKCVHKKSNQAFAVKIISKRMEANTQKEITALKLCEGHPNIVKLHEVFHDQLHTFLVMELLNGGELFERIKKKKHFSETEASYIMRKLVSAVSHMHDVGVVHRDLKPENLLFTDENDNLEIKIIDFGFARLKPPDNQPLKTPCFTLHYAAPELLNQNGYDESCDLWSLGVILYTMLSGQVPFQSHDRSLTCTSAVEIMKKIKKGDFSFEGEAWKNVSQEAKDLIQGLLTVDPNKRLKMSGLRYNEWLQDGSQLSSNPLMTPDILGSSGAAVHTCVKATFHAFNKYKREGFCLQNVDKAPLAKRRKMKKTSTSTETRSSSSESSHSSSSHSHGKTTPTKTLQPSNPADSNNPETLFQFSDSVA
smiles,measurement,setting,value
CC1CN(c2nc3ccccn3c(=O)c2N)CC(C)O1 (centres unmarked) [A1],LE,SRPK1,0.28 kcal/mol heavy atom
same,LE,MAPKAP-K3,0.33 kcal/mol heavy atom
same,LE,Src,0.28 kcal/mol heavy atom
same,LE,CK2,0.33 kcal/mol heavy atom
same,LE,RSK2,0.26 kcal/mol heavy atom
Nc1cnc2c(-c3c(F)cccc3F)cccn2c1=O [A2],number of kinases inhibited with >40% inhibition,[1],55
same,LE,CLK2,0.32 kcal/mol heavy atom
same,LE,Aurora A,0.26 kcal/mol heavy atom
same,LE,IGF-1R,0.30 kcal/mol heavy atom
same,LE,CK2,0.27 kcal/mol heavy atom
same,LE,TAK1,0.32 kcal/mol heavy atom
same,LE,GCK,0.38 kcal/mol heavy atom
same,LE,FGF-R1,0.25 kcal/mol heavy atom
same,LE,CDK2,0.33 kcal/mol heavy atom
Nc1nc2cnc(-c3ccccc3)cn2n1 [B1],number of kinases of the docking panel for which activity was found,[1],31
same,number of kinases inhibited with >40% inhibition,[1],63
same,LE,HER4,0.41 kcal/mol heavy atom
same,LE,Src,0.41 kcal/mol heavy atom
same,LE,IGF-1R,0.40 kcal/mol heavy atom
same,LE,YES1,0.41 kcal/mol heavy atom
same,LE,TAK1,0.43 kcal/mol heavy atom
same,LE,CHK2,0.42 kcal/mol heavy atom
same,LE,GCK,0.46 kcal/mol heavy atom
same,LE,VEG-FR,0.39 kcal/mol heavy atom
CC(=O)Nc1nc2cnc(-c3c(C)cccc3C)cn2n1 [B4],number of kinases of the docking panel for which activity was found,[1],did not inhibit any kinase in the docking panel
COc1ccc(-c2cc3c(=O)[nH]cnc3s2)cc1OC [C2],LE,GSK-3β,0.32 kcal/mol heavy atom
same,LE,SGK1,0.28 kcal/mol heavy atom
CC(C)(C)Nc1c(C2CC2)nc2[nH]cnn12 [D1],LE,EPH-B3,0.33 kcal/mol heavy atom
same,LE,FGF-R1,0.29 kcal/mol heavy atom
O=C(Nc1cnc2[nH]cnn2c1=O)c1ccccc1 [E1],inhibition at 100 µM,MSK1,> 40%
same,number of kinases inhibited with >40% inhibition,[1],one
O=c1c(NC(=S)NCc2ccccc2)cnc2[nH]ccn12 [F2],inhibition at 100 µM,MKK1,> 40%
same,number of kinases inhibited with >40% inhibition,[1],one
O=c1cc(-c2ccccc2F)nc2[nH]ccn12 [F3],LE,PIM3,0.40 kcal/mol heavy atom
same,LE,PIM1,0.38 kcal/mol heavy atom
